The target in assay [1] is Recombinant human ENPP1 protein (Homo sapiens (Human), UniProt P22413). The assay can be described thus: ENPP1 cGAMP Biochemical Assay. To be noted: 0.5 nM ENPP1, 1000 nM 2′3′-cGAMP substrate, TR-FRET. The protocol:
ENPP1 cGAMP Biochemical Assay
Compounds were added to 384 well Proxiplate (PerkinElmer, Waltham MA) at 100 nl/well from DMSO stocks using Echo (Labcyte, San Jose CA). Recombinant human ENPP1 protein (R&D Systems, Minneapolis MN) was prepared in assay buffer (50 mM Tris pH7.5, 1 mM TCEP pH7.0, 2 mM MgCl2 and 0.005% Tween20) and added at 10 μl/well. The plate was sealed, centrifuged at 1000 rpm for 1 minute and incubated at room temperature for 30 minutes before 5 μl substrate 2′3′-cGAMP (R&D Systems, Minneapolis MN) in assay buffer was added to each well to a final concentration of 0.5 nM ENPP1 and 1000 nM 2′3′-cGAMP. The plate was sealed and centrifuged at 1000 rpm for 1 minute again. After incubation at 25° C. for 60 minutes, Terbium labelled AMP/GMP antibody and AMP/GMP HiLyte647 Tracer (BellBrook Labs, Fitchburg WI) in detection buffer (50 mM Tris pH7.5, 20 mM EDTA and 0.1% Prionex) were added to the reaction mixture to a final concentration of 2 nM (5 μl/well). The assay plate was incubated at room temperature for 120 minutes. TR-FRET signal was detected using Envision (PerkinElmer, Waltham MA).
(In TR-FRET formats the signal depends on donor and acceptor labels being close together.)

In assay [2] the target is Recombinant human ENPP3 protein (Homo sapiens (Human), UniProt O14638). The assay is described as follows: ENPP3 cGAMP Biochemical Assay. As to conditions: 70.5 nM ENPP3, 120 μM 2′3′-cGAMP substrate, TR-FRET. The procedure: ENPP3 cGAMP Biochemical Assay
Sequence of Recombinant human ENPP3 protein (O14638 whole entry): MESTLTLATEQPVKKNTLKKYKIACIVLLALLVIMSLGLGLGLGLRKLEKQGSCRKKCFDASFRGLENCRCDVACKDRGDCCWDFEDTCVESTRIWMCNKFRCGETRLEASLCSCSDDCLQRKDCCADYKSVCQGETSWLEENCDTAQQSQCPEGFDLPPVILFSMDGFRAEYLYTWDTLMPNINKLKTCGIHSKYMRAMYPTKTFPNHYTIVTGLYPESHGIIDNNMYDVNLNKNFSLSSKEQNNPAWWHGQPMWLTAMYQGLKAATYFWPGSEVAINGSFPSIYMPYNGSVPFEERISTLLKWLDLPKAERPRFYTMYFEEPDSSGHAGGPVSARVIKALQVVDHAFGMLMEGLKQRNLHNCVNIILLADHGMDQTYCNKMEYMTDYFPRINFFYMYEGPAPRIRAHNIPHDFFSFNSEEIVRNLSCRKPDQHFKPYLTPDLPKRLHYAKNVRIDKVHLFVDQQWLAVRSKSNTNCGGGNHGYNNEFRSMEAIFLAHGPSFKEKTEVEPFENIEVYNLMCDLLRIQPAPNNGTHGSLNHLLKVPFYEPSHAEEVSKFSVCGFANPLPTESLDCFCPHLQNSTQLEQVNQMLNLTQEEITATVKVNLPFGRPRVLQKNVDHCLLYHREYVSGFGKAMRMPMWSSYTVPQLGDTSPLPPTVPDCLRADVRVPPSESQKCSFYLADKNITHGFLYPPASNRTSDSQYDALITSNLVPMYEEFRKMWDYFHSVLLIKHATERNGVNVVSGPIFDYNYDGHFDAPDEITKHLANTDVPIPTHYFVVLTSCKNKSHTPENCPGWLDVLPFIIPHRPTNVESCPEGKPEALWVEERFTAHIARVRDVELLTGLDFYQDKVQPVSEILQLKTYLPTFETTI
Compounds were added to 384 well Proxiplate (PerkinElmer, Waltham MA) at 100 nl/well from DMSO stocks using Echo (Labcyte, San Jose CA). Recombinant human ENPP3 protein (Acro Biosystems, Newwark DE) was prepared in assay buffer (50 mM Tris pH7.5, 1 mM TCEP pH7.0, 2 mM MgCl2, 2 mM CaCl2), 2 mM ZnCl2 and 0.005% Tween20) and added at 2 μl/well. The plate was sealed, centrifuged at 1000 rpm for 1 minute and incubated at room temperature for 30 minutes before 2 μl substrate 2′3′-cGAMP (R&D Systems, Minneapolis MN) in assay buffer was added to each well to a final concentration of 70.5 nM ENPP3 and 120 μM 2′3′-cGAMP. The plate was sealed and centrifuged at 1000 rpm for 1 minute again. After incubation at 25° C. for 60 minutes, Terbium labelled AMP/GMP antibody and AMP/GMP HiLyte647 Tracer (BellBrook Labs, Fitchburg WI) in detection buffer (50 mM Tris pH7.5, 20 mM EDTA and 0.1% Prionex) were added to the reaction mixture to a final concentration of 475 nM and 3 nM respectively. The assay plate was incubated at room temperature for 120 minutes. TR-FRET signal was detected using Envision (PerkinElmer, Waltham MA).

The structures appear in SMILES notation.

Sequence of Recombinant human ENPP1 protein (P22413 whole entry): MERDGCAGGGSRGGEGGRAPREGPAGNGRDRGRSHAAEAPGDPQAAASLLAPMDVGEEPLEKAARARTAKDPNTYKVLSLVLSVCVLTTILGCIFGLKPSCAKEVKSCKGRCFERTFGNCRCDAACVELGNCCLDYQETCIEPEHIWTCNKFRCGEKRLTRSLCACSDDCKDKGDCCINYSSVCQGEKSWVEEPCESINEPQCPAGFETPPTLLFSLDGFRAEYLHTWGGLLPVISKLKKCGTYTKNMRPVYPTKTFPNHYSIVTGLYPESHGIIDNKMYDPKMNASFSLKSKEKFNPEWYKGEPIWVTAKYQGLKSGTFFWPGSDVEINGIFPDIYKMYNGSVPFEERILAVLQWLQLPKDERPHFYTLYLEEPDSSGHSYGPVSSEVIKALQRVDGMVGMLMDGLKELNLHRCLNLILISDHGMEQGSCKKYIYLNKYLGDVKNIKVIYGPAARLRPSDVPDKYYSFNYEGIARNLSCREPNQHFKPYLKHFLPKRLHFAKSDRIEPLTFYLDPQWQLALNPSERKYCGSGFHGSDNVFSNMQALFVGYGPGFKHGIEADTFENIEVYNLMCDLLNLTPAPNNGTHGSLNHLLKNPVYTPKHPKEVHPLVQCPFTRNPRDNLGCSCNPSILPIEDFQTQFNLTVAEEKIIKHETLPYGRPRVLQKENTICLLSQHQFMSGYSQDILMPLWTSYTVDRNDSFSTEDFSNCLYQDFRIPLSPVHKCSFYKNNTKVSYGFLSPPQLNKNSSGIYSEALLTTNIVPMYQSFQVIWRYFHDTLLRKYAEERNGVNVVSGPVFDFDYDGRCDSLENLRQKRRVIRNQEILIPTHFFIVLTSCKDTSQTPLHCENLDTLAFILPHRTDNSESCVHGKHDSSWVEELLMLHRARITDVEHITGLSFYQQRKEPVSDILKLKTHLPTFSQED

The term IC50 denotes the concentration that gives 50% inhibition. Take `CCn1nc(Cl)c2c(NCc3ccc([S@](N)(=O)=NC)cc3)ccnc21` [Compound 12D, (R)-4-(((3-chloro-1-ethyl-1H-pyrazolo[3,4-b]pyridin-4-yl)amino)methyl)-N′-methyl benzenesulfonimidamide]: the IC50 in assay [1] is 10 to 100 nM; in assay [2], at least 1000 nM.

With `CCn1nc(Cl)c2c(NCc3ccc(S(N)(=O)=NCC(F)(F)F)cc3)ccnc21` (stereo not drawn) [Compound 12E, 4-(((3-chloro-1-ethyl-1H-pyrazolo[3,4-b]pyridin-4-yl)amino)methyl)-N′-(2,2,2-trifluoroethyl) benzenesulfonimidamide], the IC50 was 10 to 100 nM in assay [1] and at least 1000 nM in assay [2].

Consider `CCn1nc(Cl)c2c(NCc3ccc(S(N)(=O)=NC#N)cc3)ccnc21` (stereo not drawn) [Compound 12F, 4-(((3-chloro-1-ethyl-1H-pyrazolo[3,4-b]pyridine-4-yl)amino)methyl)-N′-cyano benzenesulfonimidamide], for which the IC50 was under 10 nM in assay [1] and 10 to 100 nM in assay [2].

Consider `C#CCn1nc(Cl)c2c(NCC3CCN(S(C)(=N)=O)CC3)ccnc21` (stereo not drawn) [Compound 13A, 3-chloro-N-((1-(S-methylsulfonimidoyl)piperidin-4-yl)methyl)-1-(prop-2-yn-1-yl)-1H-pyrazolo[3,4-b]pyridin-4-amine], for which the half-maximal inhibitory concentration (IC50) in assay [1] is under 10 nM; in assay [2] it was 10 to 100 nM.

As for `C#CCn1nc(Cl)c2c(NCC3CCN([S@](C)(=N)=O)CC3)ccnc21` [Compound 13B, (S)-3-chloro-N-((1-(S-methylsulfonimidoyl)piperidin-4-yl)methyl)-1-(prop-2-yn-1-yl)-1H-pyrazolo[3,4-b]pyridin-4-amine], the IC50 in assay [1] was under 10 nM; in assay [2], 10 to 100 nM.

For the compound `C#CCn1nc(Cl)c2c(NCC3CCN([S@@](C)(=N)=O)CC3)ccnc21` [Compound 13C, (R)-3-chloro-N-((1-(S-methylsulfonimidoyl)piperidin-4-yl)methyl)-1-(prop-2-yn-1-yl)-1H-pyrazolo[3,4-b]pyridin-4-amine], the IC50 in assay [1] was under 10 nM; in assay [2], at least 1000 nM.

Regarding `CS(=N)(=O)N1CCC(CNc2ccnc3c2c(Cl)nn3CC#N)CC1` (stereo not drawn) [Compound 13D, 2-(3-chloro-4-(((1-(S-methylsulfonimidoyl)piperidin-4-yl)methyl)amino)-1H-pyrazolo[3,4-b]pyridin-1-yl)acetonitrile], the IC50 is under 10 nM in assay [1] and 10 to 100 nM in assay [2].

With `C[S@@](=N)(=O)N1CCC(CNc2ccnc3c2c(Cl)nn3CC#N)CC1` [Compound 13E, (S)-2-(3-chloro-4-(((1-(S-methylsulfonimidoyl)piperidin-4-yl)methyl)amino)-1H-pyrazolo[3,4-b]pyridin-1-yl)acetonitrile], the IC50 was under 10 nM in assay [1] and 10 to 100 nM in assay [2].

As for `C[S@](=N)(=O)N1CCC(CNc2ccnc3c2c(Cl)nn3CC#N)CC1` [Compound 13F, (R)-2-(3-chloro-4-(((1-(S-methylsulfonimidoyl)piperidin-4-yl)methyl)amino)-1H-pyrazolo[3,4-b]pyridin-1-yl)acetonitrile], the IC50 in assay [1] was 100 to 1000 nM; in assay [2] it was at least 1000 nM.

With `CCn1nc(Cl)c2c(NCC3CCN([S@@](C)(=N)=O)CC3)ccnc21` [Compound 13G, (R)-3-chloro-1-ethyl-N-((1-(S-methylsulfonimidoyl)piperidin-4-yl)methyl)-1H-pyrazolo[3,4-b]pyridin-4-amine], the IC50 in assay [1] is 10 to 100 nM; in assay [2], at least 1000 nM.

Regarding `CCn1nc(Cl)c2c(NCC3CCN([S@](C)(=N)=O)CC3)ccnc21` [Compound 13H, (S)-3-chloro-1-ethyl-N-((1-(S-methylsulfonimidoyl)piperidin-4-yl)methyl)-1H-pyrazolo[3,4-b]pyridin-4-amine], the IC50 was 10 to 100 nM in assay [1] and at least 1000 nM in assay [2].

`CCn1nc(Cl)c2c(NCC3CCN(S(=N)(=O)CCOC)CC3)ccnc21` (stereo not drawn) [Compound 14B, 3-chloro-1-ethyl-N-((1-(2-methoxyethylsulfonimidoyl)piperidin-4-yl)methyl)-1H-pyrazolo[3,4-b]pyridin-4-amine]: the IC50 was 10 to 100 nM in assay [1] and at least 1000 nM in assay [2].

With `CCn1nc(Cl)c2c(NCC3CCN([S@@](=N)(=O)CCOC)CC3)ccnc21` [Compound 14C, (R)-3-chloro-1-ethyl-N-((1-(2-methoxyethylsulfonimidoyl)piperidin-4-yl)methyl)-1H-pyrazolo[3,4-b]pyridin-4-amine], the results for the IC50 in assay [1] and in assay [2] were 10 to 100 nM and at least 1000 nM, respectively.

Consider `CCn1nc(Cl)c2c(NCC3CCN([S@](=N)(=O)CCOC)CC3)ccnc21` [Compound 14D, (S)-3-chloro-1-ethyl-N-((1-(2-methoxyethylsulfonimidoyl)piperidin-4-yl)methyl)-1H-pyrazolo[3,4-b]pyridin-4-amine], for which the results for the IC50 in assay [1] and in assay [2] were 10 to 100 nM and at least 1000 nM, respectively.

Turning to `CCn1nc(Cl)c2c(NCC3CCN(S(=N)(=O)CCC(=O)O)CC3)ccnc21` (stereo not drawn) [Compound 14F, 3-(4-(((3-chloro-1-ethyl-1H-pyrazolo[3,4-b]pyridin-4-yl)amino)methyl)piperidine-1-sulfonimidoyl)propanoic acid], the IC50 in assay [1] is under 10 nM; in assay [2], 100 to 1000 nM.

Turning to `C#CCn1nc(Cl)c2c(NCC3CCN([S@@](C)(=O)=NC#N)CC3)ccnc21` [Compound 14I, (S)-N-((4-(((3-chloro-1-(prop-2-yn-1-yl)-1H-pyrazolo[3,4-b]pyridin-4-yl)amino)methyl)piperidin-1-yl)(methyl)(oxo)-λ6-sulfaneylidene)cyanamide], the figures for the IC50 in assay [1] and in assay [2] were under 10 nM and at least 1000 nM, respectively.

For `C#CCn1nc(Cl)c2c(NCC3CCN([S@](C)(=O)=NC#N)CC3)ccnc21` [Compound 14J, (R)-N-((4-(((3-chloro-1-(prop-2-yn-1-yl)-1H-pyrazolo[3,4-b]pyridin-4-yl)amino)methyl)piperidin-1-yl)(methyl)(oxo)-λ6-sulfaneylidene)cyanamide], the values for the IC50 in assay [1] and in assay [2] were 100 to 1000 nM and at least 1000 nM, respectively.

Take `CN=S(N)(=O)N1CCC(CNc2ccnc3c2c(Cl)nn3CC#N)CC1` (stereo not drawn) [Compound 15A, 4-(((3-chloro-1-(cyanomethyl)-1H-pyrazolo[3,4-b]pyridin-4-yl)amino)methyl)-N′-methylpiperidine-1-sulfonimidamide]: the IC50 is under 10 nM in assay [1] and 10 to 100 nM in assay [2].

Regarding `N#CCn1nc(Cl)c2c(NCC3CCN(S(N)(=O)=NC#N)CC3)ccnc21` (stereo not drawn) [Compound 15B, 4-(((3-chloro-1-(cyanomethyl)-1H-pyrazolo[3,4-b]pyridin-4-yl)amino)methyl)-N′-cyanopiperidine-1-sulfonimidamide], the IC50 in assay [1] and in assay [2] was under 10 nM throughout.

On to `C#CCn1nc(Cl)c2c(NCC3CCN(S(=N)(N)=O)CC3)ccnc21` (stereo not drawn) [Compound 15I, 4-(((3-chloro-1-(prop-2-yn-1-yl)-1H-pyrazolo[3,4-b]pyridin-4-yl)amino)methyl)piperidine-1-sulfonimidamide], for which the values for the IC50 in assay [1] and in assay [2] were under 10 nM and 100 to 1000 nM, respectively.

`CCn1ncc2c(Oc3ccc(S(N)(=O)=NCC4CC4)cc3)ccnc21` (stereo not drawn) [Compound 16A, N′-(cyclopropylmethyl)-4-((1-ethyl-1H-pyrazolo [3,4-b]pyridin-4-yl)oxy)benzenesulfonimidamide]: the 50% inhibitory concentration (IC50) in assay [1] and in assay [2] was at least 1000 nM each time.

The record behind these values is patent US20260049084A1, “ENPP1 MODULATORS AND PRODUCTS AND USES THEREOF” (Gossamer Bio Services, Inc., priority 2022, published 2026).
